According to patent publication US20120094939A1, “ANTI-VIRAL COMPOUNDS, COMPOSITIONS AND METHODS” (priority 2007, published 2012):
Like-named read-outs stand apart in the source and are kept apart here.

Test system: OR6 cells harboring full-length genotype 1b HCV replicon ORN/C-5B/KE (HCV RNA replication)
Assay: microbe, parasite or virus in culture
Type: cell-based, Hepatitis C virus (strain HCV—O
Settings: 48 hours; for antiviral activity (in words): OR6 full-length replicon
Excerpt: (§1) HCV Replicon System-Secondary Assays. For validation, OR6 cells stably harboring the full-length genotype 1 replicon, ORN/C-5B/KE9 were used to examine compound activity in a more authentic viral polyprotein context. This replicon was derived from the 1B-2 strain (strain HCV—O, genotype 1b), in which the Renilla luciferase gene is introduced as a fusion protein with neomycin to facilitate the monitoring of HCV replication. This construct contains a tissue culture adaptive mutation in the NS3 region. Cells were cultured in an identical manner to the Huh7/Rep-Feo cells.
Secondary Assays-Hit Validation. Several hits from primary HTS, as well as functionally related compounds, were purchased from Sigma (St. Louis, Mo.), Calbiochem (San Diego, Calif.), and Microsource (Gaylordsville, Conn.). […] Ten mM of stock solutions of the individual compounds to be tested was prepared in the appropriate solvent (DMSO, ethanol, or H2O, according to the manufacturer's information) and stored at −20° C. Cells were seeded into 96-well plates at a density of 2000 cells/well in 100 μL of medium. The cells were incubated for 24 hours at 37° C. to obtain the optimal level of adherence. Solutions of candidate hit compounds were added to wells to achieve final concentrations of 0.1, 1, 10, 50, and 100 μM. The final concentration of DMSO or ethanol in every well was 1% or less by volume. Mock solutions were used as a negative control. PEG-IFN and ribavirin were used as positive controls at various concentrations, alone and in combination. The plates were then incubated at 37° C. with 5% CO2 for 48 hours before they were analyzed. Luminescent signal was generated using the Renilla luciferase assay kit (Promega) according to the manufacturer's instructions. Signal was then detected using a LumiCount (Packard BioScience Company) luminometer. Cell viability was assessed using CellTiter-Glo (Promega), following the manufacturer's instructions. All experiments were performed in triplicate.
Secondary Assays-Data Analysis. Values were presented as a percentage of mock treated control, which was arbitrarily set at 100%. Data were expressed as the mean (±) SD. […] Synergy calculations were performed using CalcuSyn (Biosoft; Cambridge, England).
as §1, with “System—Secondary Assays:” for “System-Secondary Assays.”, “For replicon” for “For”, “ORN/C-5B/KE” for “ORN/C-5B/KE9”, “(Burke J. Am. Chem. Soc. (2004) 126:14095-14104).” for “to examine compound activity in a more authentic viral polyprotein context.”, “the Neomycin resistance cassette” for “neomycin”
Secondary Assays—Hit Validation: 10 mM of stock solutions of the individual compounds to be tested were prepared in DMSO and stored at −20° C. Cells were seeded into 96-well plates at a density of 2,000 cells/well in 100 μl of medium. The cells were incubated for 24 hours at 37° C. to obtain the optimal level of adherence. Solutions of candidate hit compounds were added to wells to achieve varying final concentrations between 0.01 and 100 μM. The final concentration of DMSO or ethanol in every well was 1% or less by volume. Mock solutions were used as a negative control. Peginterferon-alfa-2b (PEG-Intron; Schering Corp.; Kenilworth, N.J.) and ribavirin (Sigma; St. Louis, Mo.) were used as positive controls at various concentrations, alone and in combination. The plates were then incubated at 37° C. with 5% CO2 for 48 hours before they were analyzed. Luminescent signal was generated using the Renilla luciferase assay kit (Promega; Madison, Wis.) according to the manufacturer's instructions. Signal was then detected using a LumiCount™ (Packard BioScience Company; Downers Grove, Ill.) luminometer.

[1] = Hepatitis C virus, OR6, 48 h, read-out: IC50 (HCV RNA replication, luciferase), OR6 full-length genotype 1b replicon

Cc1cc(C)c(-c2cc([C@H](C)O/N=C3/[C@H]4CCn5c(=O)n(-c6ccccc6)c(=O)n5[C@H]4[C@H](O)[C@@H]4O[C@H]34)on2)c(C)c1 [BUCMLD-B10A11]
IC50 [1]: < 500 nM

CC(=O)OC[C@H]1O[C@H](CCO/N=C2/[C@H]3CCn4c(=O)n(-c5ccccc5)c(=O)n4[C@H]3[C@H](O)[C@@H]3O[C@H]23)C=C[C@@H]1OC(C)=O [BUCMLD-B10A3]
IC50 [1]: > 500 nM | IC50 (read-out: IC50 (HCV RNA replication, luciferase), OR6 full-length genotype 1b replicon): < 1000 nM

COc1cc2c(cc1OC)-c1c/c(=N\c3c(C)cc(C)cc3C)n(C)c(=O)n1CC2 [trequinsin, reference compound]
antiviral activity (in words): antiviral activity at the lower concentrations of 1 and 10 μM

O=C1C2(CO)C=C(Br)C(CC2c2ccccc2)[C@@]12CO2 (some centres unmarked) [SM_A6B5_2P100]
IC50 [1]: ~7000 nM

Cc1cc2c(nc1C)CCCN2CC(C)O/N=C1/[C@H]2CCn3c(=O)n(-c4ccccc4)c(=O)n3[C@H]2[C@H](O)[C@@H]2O[C@H]12 (some centres unmarked) [BUCMLD-B10A5]
IC50 [1]: ~1000 nM

O=C1C2C=C(I)C(CC2OCCCCO)[C@@]12CO2 (some centres unmarked) [SM_A5B3_2P141]
IC50 [1]: 10000 to 50000 nM | antiviral activity (in words): modest antiviral activity
